These compounds were tested against T1, GlyT1 transporter (Homo sapiens, UniProt P48067) (assay: GlyT1 assay: 3H-glycine uptake into SK-N-MC cells (Cytostar-T format)). Conditions: glycine uptake in human SK-N-MC cells endogenously expressing GlyT1; 500 nM glycine, 1% DMSO, signal recorded over 60 min.
T1 construct: endogenously expressing the GlyT1 transporter; host or cells: SK-N-MC human neuroblastoma cells
T1 sequence (P48067 1-706): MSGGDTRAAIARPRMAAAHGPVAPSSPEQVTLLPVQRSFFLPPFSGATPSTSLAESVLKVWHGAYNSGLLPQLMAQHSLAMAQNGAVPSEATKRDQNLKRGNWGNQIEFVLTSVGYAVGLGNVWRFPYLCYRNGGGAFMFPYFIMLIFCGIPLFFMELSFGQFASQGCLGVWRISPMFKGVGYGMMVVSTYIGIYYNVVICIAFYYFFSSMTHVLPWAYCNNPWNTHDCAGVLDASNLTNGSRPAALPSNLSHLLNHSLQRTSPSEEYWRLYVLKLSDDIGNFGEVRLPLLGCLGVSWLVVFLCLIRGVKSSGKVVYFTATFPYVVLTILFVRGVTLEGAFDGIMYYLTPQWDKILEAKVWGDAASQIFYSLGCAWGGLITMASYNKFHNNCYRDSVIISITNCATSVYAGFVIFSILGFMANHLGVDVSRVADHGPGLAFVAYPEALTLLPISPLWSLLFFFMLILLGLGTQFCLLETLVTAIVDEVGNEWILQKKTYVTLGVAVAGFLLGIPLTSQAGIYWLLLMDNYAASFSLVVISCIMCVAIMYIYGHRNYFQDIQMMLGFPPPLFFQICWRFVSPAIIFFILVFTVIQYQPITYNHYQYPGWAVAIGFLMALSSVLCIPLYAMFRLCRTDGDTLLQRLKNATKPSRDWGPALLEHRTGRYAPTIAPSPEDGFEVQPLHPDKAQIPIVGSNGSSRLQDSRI
Format: cell-based
Method in brief: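 Endogenous GlyT1 in human SK-N-MC cells, confluent after 16-18 h, in HBSS with 5 mM alanine. Compounds preincubated about 5-10 min, then 500 nM glycine (half ³H) added, 1% DMSO. Scintillation-proximity uptake recorded kinetically over 60 min; IC50 from linear-range slopes over 8 concentrations, nonspecific uptake defined with 10 μM RG-1678.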
In the case of C[C@@H](Oc1ccc(S(C)(=O)=O)cc1C(=O)N1CC2CC2(c2nccc(C(F)(F)F)n2)C1)C(F)(F)F (single isomer, unassigned) [Example 19, [5-Methanesulfonyl-2-(2,2,2-trifluoro-1-methyl-ethoxy)-phenyl]-[1-(4-trifluoromethyl-pyrimidin-2-yl)-3-aza-bicyclo[3.1.0]hex-3-yl]-methanone], the IC50 is reported as 5 nM.
C[C@H](Oc1ccc(S(C)(=O)=O)cc1C(=O)N1CC2CC2(c2noc(CC(F)(F)F)n2)C1)C(F)(F)F (mixture of isomers) [Example 61, [5-Methanesulfonyl-2-(2,2,2-trifluoro-1-methyl-ethoxy)-phenyl]-{1-[5-(2,2,2-trifluoro-ethyl)-[1,2,4]oxadiazol-3-yl]-3-aza-bicyclo[3.1.0]hex-3-yl}-methanone] was tested, and the IC50 was 8 nM.
Compound C[C@H](Oc1ccc(S(C)(=O)=O)cc1C(=O)N1CC2CC2(c2csc(C(F)(F)F)n2)C1)C(F)(F)F (mixture of isomers) [Example 26, [5-Methanesulfonyl-2-(2,2,2-trifluoro-1-methyl-ethoxy)-phenyl]-[1-(2-trifluoromethyl-thiazol-4-yl)-3-aza-bicyclo[3.1.0]hex-3-yl]-methanone] has an IC50 of 8 nM.
Work on Cc1nc(C23CC2CN(C(=O)c2cc(S(C)(=O)=O)ccc2O[C@@H](C)C(F)(F)F)C3)no1 (single isomer, unassigned) [Example 7, [5-Methanesulfonyl-2-(2,2,2-trifluoro-1-methyl-ethoxy)-phenyl]-[1-(5-methyl-[1,2,4]oxadiazol-3-yl)-3-aza-bicyclo[3.1.0]hex-3-yl]-methanone] yielded an IC50 of 4 nM.
In the case of CCS(=O)(=O)c1ccc(O[C@@H](C)C(F)(F)F)c(C(=O)N2CC3CC3(c3nccc(C(F)(F)F)n3)C2)c1 (single isomer, unassigned) [Example 74, [5-Ethanesulfonyl-2-(2,2,2-trifluoro-1-methyl-ethoxy)-phenyl]-[1-(4-trifluoromethyl-pyrimidin-2-yl)-3-aza-bicyclo[3.1.0]hex-3-yl]-methanone], the IC50 is reported as 4 nM.
Compound C[C@@H](Oc1ccc(S(C)(=O)=O)cc1C(=O)N1CC2CC2(c2noc(C3(C(F)(F)F)CC3)n2)C1)C(F)(F)F (mixture of isomers) [Example 68, [5-Methanesulfonyl-2-(2,2,2-trifluoro-1-methyl-ethoxy)-phenyl]-{1-[5-(1-trifluoromethyl-cyclopropyl)-[1,2,4]oxadiazol-3-yl]-3-aza-bicyclo[3.1.0]hex-3-yl}-methanone] has an IC50 of 7 nM.
For C[C@@H](Oc1ccc(S(C)(=O)=O)cc1C(=O)N1CC2CC2(c2nnc(C3(C(F)(F)F)CC3)o2)C1)C(F)(F)F (single isomer, unassigned) [Example 149, [5-Methanesulfonyl-2-(2,2,2-trifluoro-1-methyl-ethoxy)-phenyl]-{1-[5-(1-trifluoromethyl-cyclopropyl)-[1,3,4]oxadiazol-2-yl]-3-aza-bicyclo[3.1.0]hex-3-yl}-methanone], the IC50 was 8 nM.
Work on CC(C)Oc1ccc(S(C)(=O)=O)cc1C(=O)N1CC2CC2(c2noc(C(F)(F)F)n2)C1 (racemic) [Example 96, (2-Isopropoxy-5-methanesulfonyl-phenyl)-[1-(5-trifluoromethyl-[1,2,4]oxadiazol-3-yl)-3-aza-bicyclo[3.1.0]hex-3-yl]-methanone] yielded an IC50 of 27 nM.
Cc1cnc(C23CC2CN(C(=O)c2cc(S(C)(=O)=O)ccc2O[C@@H](C)C(F)(F)F)C3)o1 (single isomer, unassigned) [Example 22, [5-Methanesulfonyl-2-(2,2,2-trifluoro-1-methyl-ethoxy)-phenyl]-[1-(5-methyl-oxazol-2-yl)-3-aza-bicyclo[3.1.0]hex-3-yl]-methanone] showed an IC50 of 5 nM.
Compound C[C@H](Oc1ccc(S(C)(=O)=O)cc1C(=O)N1CC2CC2(c2ncc(C(F)(F)F)o2)C1)C(F)(F)F (mixture of isomers) [Example 131, [5-Methanesulfonyl-2-(2,2,2-trifluoro-1-methyl-ethoxy)-phenyl]-[1-(5-trifluoromethyl-oxazol-2-yl)-3-aza-bicyclo[3.1.0]hex-3-yl]-methanone] has an IC50 of 19 nM.
For CC(C)COc1ccc(S(C)(=O)=O)cc1C(=O)N1CC2CC2(c2noc(C(F)(F)F)n2)C1 (racemic) [Example 95, (2-Isobutoxy-5-methxnesulfonyl-phenyl)-[1-(5-trifluoromethyl-[1,2,4]oxadiazol-3-yl)-3-aza-bicyclo[3.10]hex-3-yl]-methanone], the IC50 was 131 nM.
Cc1c(C23CC2CN(C(=O)c2cc(S(C)(=O)=O)ccc2O[C@H](C)C(F)(F)F)C3)noc1C(F)(F)F (single isomer, unassigned) [Example 162] was tested, and the IC50 was 387 nM.
COC1(c2nc(C34CC3CN(C(=O)c3cc(S(C)(=O)=O)ccc3O[C@H](C)C(F)(F)F)C4)no2)CC1 (single isomer, unassigned) [Example 120, [5-Methanesulfonyl-2-(2,2,2-trifluoro-1-methyl-ethoxy)-phenyl]-{1-[5-(1-methoxy-cyclopropyl)-[1,2,4]oxadiazol-3-yl]-3-aza-bicyclo[3.1.0]hex-3-yl}-methanone] was tested, and the IC50 was 6 nM.
Cc1c(C23CC2CN(C(=O)c2cc(S(C)(=O)=O)ccc2O[C@@H](C)C(F)(F)F)C3)noc1C(F)(F)F (single isomer, unassigned) [Example 165] was tested, and the IC50 was 394 nM.
In the case of CCS(=O)(=O)c1ccc(O[C@H](C)C(F)(F)F)c(C(=O)N2CC3CC3(c3noc(C(F)(F)F)n3)C2)c1 (mixture of isomers) [Example 92, [5-Ethanesulfonyl-2-(2,2,2-trifluoro-1-methyl-ethoxy)-phenyl]-[1-(5-trifluoromethyl-[1,2,4]oxadiazol-3-yl)-3-aza-bicyclo[3.1.0]hex-3-yl]-methanone], the IC50 is reported as 25 nM.
C[C@@H](Oc1ccc(S(C)(=O)=O)cc1C(=O)N1CC2CC2(c2nnc(C3(C(F)(F)F)CC3)o2)C1)C(F)(F)F (mixture of isomers) [Example 148, [5-Methanesulfonyl-2-(2,2,2-trifluoro-1-methyl-ethoxy)-phenyl]-{1-[5-(1-trifluoromethyl-cyclopropyl)-[1,3,4]oxadiazol-2-yl]-3-aza-bicyclo[3.1.0]hex-3-yl}-methanone] showed an IC50 of 9 nM.
With Cc1nc(C23CC2CN(C(=O)c2cc(S(C)(=O)=O)ccc2O[C@@H](C)C(F)(F)F)C3)no1 (mixture of isomers) [Example 6, [5-Methanesulfonyl-2-(2,2,2-trifluoro-1-methyl-ethoxy)-phenyl]-[1-(5-methyl-[1,2,4]oxadiazol-3-yl)-3-aza-bicyclo[3.1.0]hex-3-yl]-methanone] the IC50 was 16.5 nM.
For CC(C)Oc1ccc(S(C)(=O)=O)cc1C(=O)N1CC2CC2(c2nc(C(F)(F)F)co2)C1 (single isomer, unassigned) [Example 111, (2-Isopropoxy-5-methanesulfonyl-phenyl)-[1-(4-trifluoromethyl-oxazol-2-yl)-3-aza-bicyclo[3.1.0]hex-3-yl]-methanone], the IC50 was 257 nM.
Work on Cc1nc(C23CC2CN(C(=O)c2cc(S(C)(=O)=O)ccc2O[C@@H](C)C(F)(F)F)C3)co1 (mixture of isomers) [Example 32, [5-Methanesulfonyl-2-(2,2,2-trifluoro-1-methyl-ethoxy)-phenyl]-[1-(2-methyl-oxazol-4-yl)-3-aza-bicyclo[3.1.0]hex-3-yl]-methanone] yielded an IC50 of 26 nM.
Work on C[C@H](Oc1ccc(S(C)(=O)=O)cc1C(=O)N1CC2CC2(c2nnc(C3(C(F)(F)F)CC3)o2)C1)C(F)(F)F (single isomer, unassigned) [Example 152, [5-Methanesulfonyl-2-(2,2,2-trifluoro-1-methyl-ethoxy)-phenyl]-{1-[5-(1-trifluoromethyl-cyclopropyl)-[1,3,4]oxadiazol-2-yl]-3-aza-bicyclo[3.1.0]hex-3-yl}-methanone] yielded an IC50 of 10 nM.
CCS(=O)(=O)c1ccc(O[C@H](C)C(F)(F)F)c(C(=O)N2CC3CC3(c3cc(C(F)(F)F)on3)C2)c1 (mixture of isomers) [Example 105, [5-Ethanesulfonyl-2-(2,2,2-trifluoro-1-methyl-ethoxy)-phenyl]-[1-(5-trifluoromethyl-isoxazol-3-yl)-3-aza-bicyclo[3.1.0]hex-3-yl]-methanone] gave an IC50 of 7 nM.
C[C@@H](Oc1ccc(S(C)(=O)=O)cc1C(=O)N1CC2CC2(c2coc(C3CC3)n2)C1)C(F)(F)F (mixture of isomers) [Example 81, [1-(2-Cyclopropyl-oxazol-4-yl)-3-aza-bicyclo[3.1.0]hex-3-yl]-[5-methanesulfonyl-2-((S)-2,2,2-trifluoro-1-methyl-ethoxy)-phenyl]-methanone] gave an IC50 of 6 nM.
Work on C[C@H](Oc1ccc(S(C)(=O)=O)cc1C(=O)N1CC2CC2(c2ncc(C(F)(F)F)o2)C1)C(F)(F)F (single isomer, unassigned) [Example 132, [5-Methanesulfonyl-2-(2,2,2-trifluoro-1-methyl-ethoxy)-phenyl]-[1-(5-trifluoromethyl-oxazol-2-yl)-3-aza-bicyclo[3.1.0]hex-3-yl]-methanone] yielded an IC50 of 3 nM.

From US9012489B2, “Phenyl-3-aza-bicyclo[3.1.0]hex-3-yl-methanones and the use thereof as medicament” (Boehringer Ingelheim International GmbH, priority 2011, dated 2015)
